Drawing on ChEMBL document CHEMBL3751674, “Synthesis, antimicrobial activity of Schiff base compounds of cinnamaldehyde and amino acids” (2016), this text covers zone of inhibition for six compounds.

Common to all, as to type: functional
Conditions in all cases: read-out: DIZ

Assay [1] concerns Staphylococcus aureus. In words: Antibacterial activity against Staphylococcus aureus at 0.13 mol/L after 12 to 24 hrs by paper disc method.
In assay [2] the test system is Staphylococcus aureus. In words: Antibacterial activity against Staphylococcus aureus at 0.25 mol/L after 12 to 24 hrs by paper disc method.
The subject of assay [3] is Escherichia coli. In words: Antibacterial activity against Escherichia coli at 0.03 mol/L after 12 to 24 hrs by paper disc method.
Assay [4] deals with Aspergillus niger. In words: Antifungal activity against Aspergillus niger at 0.13 mol/L after 2 to 4 days by paper disc method.
In assay [5] the test system is Escherichia coli. In words: Antibacterial activity against Escherichia coli at 0.06 mol/L after 12 to 24 hrs by paper disc method.
Assay [6] has as its system Escherichia coli. In words: Antibacterial activity against Escherichia coli at 0.25 mol/L after 12 to 24 hrs by paper disc method.
For assay [7], the system named is Staphylococcus aureus. In words: Antibacterial activity against Staphylococcus aureus at 0.03 mol/L after 12 to 24 hrs by paper disc method.
Assay [8] has as its system Staphylococcus aureus. In words: Antibacterial activity against Staphylococcus aureus at 0.06 mol/L after 12 to 24 hrs by paper disc method.
Assay [9] deals with Penicillium citrinum. In words: Antifungal activity against Penicillium citrinum at 0.06 mol/L after 2 to 4 days by paper disc method.
Assay [10] deals with Escherichia coli. In words: Antibacterial activity against Escherichia coli at 0.13 mol/L after 12 to 24 hrs by paper disc method.
Assay [11] deals with Aspergillus niger. In words: Antifungal activity against Aspergillus niger at 0.06 mol/L after 2 to 4 days by paper disc method.
Assay [12] concerns Aspergillus niger. In words: Antifungal activity against Aspergillus niger at 0.25 mol/L after 2 to 4 days by paper disc method.
Assay [13] relates to Penicillium citrinum. In words: Antifungal activity against Penicillium citrinum at 0.13 mol/L after 2 to 4 days by paper disc method.
Assay [14] relates to Penicillium citrinum. In words: Antifungal activity against Penicillium citrinum at 0.03 mol/L after 2 to 4 days by paper disc method.
Assay [15] relates to Penicillium citrinum. In words: Antifungal activity against Penicillium citrinum at 0.25 mol/L after 2 to 4 days by paper disc method.
For assay [16], the system named is Aspergillus niger. In words: Antifungal activity against Aspergillus niger at 0.03 mol/L after 2 to 4 days by paper disc method.

Consider `O=C(O)C/N=C/C=C/c1ccc(Cl)cc1`, for which the zone of inhibition at 130000 µM in the assay with Staphylococcus aureus [1] is 9.7 mm; with Aspergillus niger [4], 23 mm; with Escherichia coli [10] it was 18.2 mm; in the assay on Penicillium citrinum [13], 21.7 mm. Further, the zone of inhibition at 250000 µM with Staphylococcus aureus [2] turned out to be 22.2 mm; in the assay with Escherichia coli [6] it was 22.8 mm; in the assay with Aspergillus niger [12], 23.7 mm; with Penicillium citrinum [15], 25 mm. In addition, the zone of inhibition at 30000 µM with Escherichia coli [3] turned out to be 19.3 mm; in the assay with Staphylococcus aureus [7] it was 12.3 mm; in the assay on Penicillium citrinum [14] it was 16.3 mm; in the assay with Aspergillus niger [16], 12 mm. Further, the zone of inhibition at 60000 µM in the assay on Escherichia coli [5] stood at 21.7 mm; in the assay with Staphylococcus aureus [8] it was 8 mm; with Penicillium citrinum [9], 20.3 mm; in the assay with Aspergillus niger [11], 21.7 mm.

With `CC(C)[C@H](/N=C/C=C/c1ccc(Cl)cc1)C(=O)O`, the zone of inhibition at 130000 µM in the assay with Staphylococcus aureus [1] is 15.3 mm; in the assay on Aspergillus niger [4], 24 mm; with Escherichia coli [10], 15.3 mm; in the assay on Penicillium citrinum [13] it was 31 mm. Also, the zone of inhibition at 250000 µM turned out to be 33 mm in the assay on Staphylococcus aureus [2], 20.5 mm in the assay on Escherichia coli [6], 27.3 mm with Aspergillus niger [12] and 33.5 mm in the assay with Penicillium citrinum [15]. Besides, the zone of inhibition at 30000 µM was 12 mm in the assay on Escherichia coli [3], 11 mm in the assay on Staphylococcus aureus [7], 20.7 mm in the assay on Penicillium citrinum [14] and 15.7 mm in the assay with Aspergillus niger [16]. The zone of inhibition at 60000 µM was 11 mm in the assay with Escherichia coli [5], 13.5 mm with Staphylococcus aureus [8], 19.5 mm in the assay on Penicillium citrinum [9] and 19 mm with Aspergillus niger [11].

In the case of `COc1ccc(/C=C/C=N/[C@@H](CC(=O)O)C(=O)O)cc1`, the zone of inhibition at 130000 µM was 10.2 mm with Staphylococcus aureus [1], 22.5 mm with Aspergillus niger [4], 10 mm with Escherichia coli [10] and 23.7 mm with Penicillium citrinum [13]. Further, the zone of inhibition at 250000 µM is 8 mm with Staphylococcus aureus [2], 9.5 mm in the assay with Escherichia coli [6], 16.3 mm in the assay with Aspergillus niger [12] and 34.3 mm with Penicillium citrinum [15]. The zone of inhibition at 30000 µM in the assay with Escherichia coli [3] was 10.3 mm; in the assay with Staphylococcus aureus [7], 8 mm; in the assay on Penicillium citrinum [14], 8 mm; with Aspergillus niger [16], 8 mm. The zone of inhibition at 60000 µM in the assay with Escherichia coli [5] came out at 10 mm; in the assay on Staphylococcus aureus [8], 8.3 mm; in the assay on Penicillium citrinum [9], 12.8 mm; in the assay with Aspergillus niger [11], 11.2 mm.

On to `CC(C)C[C@H](/N=C/C=C/c1ccccc1)C(=O)O`, for which the zone of inhibition at 130000 µM with Staphylococcus aureus [1] came to 8 mm; in the assay with Aspergillus niger [4], 9.8 mm; in the assay with Escherichia coli [10], 8.3 mm; in the assay on Penicillium citrinum [13], 9 mm. In addition, the zone of inhibition at 250000 µM turned out to be 8 mm with Staphylococcus aureus [2], 10 mm with Escherichia coli [6], 16.3 mm in the assay with Aspergillus niger [12] and 10.5 mm in the assay on Penicillium citrinum [15]. For the same compound, the zone of inhibition at 30000 µM is 8 mm with Escherichia coli [3], 8 mm in the assay with Staphylococcus aureus [7], 8.5 mm in the assay on Penicillium citrinum [14] and 8 mm in the assay with Aspergillus niger [16]. The zone of inhibition at 60000 µM with Escherichia coli [5] was found to be 8 mm; with Staphylococcus aureus [8] it was 8.2 mm; in the assay on Penicillium citrinum [9], 9.3 mm; in the assay with Aspergillus niger [11], 8 mm.

Consider `OC(Cn1cncn1)(Cn1cncn1)c1ccc(F)cc1F` [FLUCONAZOLE], for which the results for the zone of inhibition at 130000 µM in the assay on Aspergillus niger [4] and with Penicillium citrinum [13] were 18.7 mm and 13 mm, respectively. In addition, the zone of inhibition at 60000 µM in the assay on Penicillium citrinum [9] is 9.2 mm; in the assay on Aspergillus niger [11], 17.7 mm. Also, the results for the zone of inhibition at 250000 µM in the assay on Aspergillus niger [12] and in the assay with Penicillium citrinum [15] were 25 mm and 13.3 mm, respectively. The zone of inhibition at 30000 µM in the assay with Penicillium citrinum [14] amounted to 8 mm; in the assay with Aspergillus niger [16] it was 14.5 mm.

For `O=C(O)c1cn(C2CC2)c2cc(N3CCNCC3)c(F)cc2c1=O` [CIPROFLOXACIN], the zone of inhibition at 130000 µM with Staphylococcus aureus [1] came to 21 mm; in the assay on Escherichia coli [10] it was 23.3 mm. The zone of inhibition at 250000 µM in the assay with Staphylococcus aureus [2] worked out at 21 mm; with Escherichia coli [6], 24.3 mm. Further, the zone of inhibition at 30000 µM in the assay with Escherichia coli [3] stood at 22.3 mm; in the assay on Staphylococcus aureus [7] it was 16 mm. Further, in the assay with Staphylococcus aureus [8], the zone of inhibition at 60000 µM stood at 16.7 mm.
